Measured values reported in patent publication US11731959B2, “Troxacitabine synthesis and crystal form thereof” (BEIJING HEBABIZ BIOTECHNOLOGY CO., LTD., priority 2015, dated 2023).

What was measured:
Format in all cases: physicochemical
[1] = Hygroscopicity study by DVS method at 25° C.; conditions: for humidity at which the crystal form begins to absorb water / water absorbed at 90% RH: 25° C.; for crystal form after water absorption / DVS (XRPD): XRPD before and after DVS
Procedure: The hygroscopicity of crystal forms A, C and E is evaluated by DVS method at 25° C. Crystal form A begins to absorb water at 70% RH and absorbs 8.4% of water at 90% RH. […] Crystal form E begins to absorb water at 80% RH and absorbs 8.5% of water at 90% RH. […] Therefore, crystal form C is selected for further stability study.

[2] = Crystal form conversion on storage or heating (XRPD/DSC)
Excerpt: The innovator of this invention set up 103 pleiomorphic screening tests using 7 methods, and obtained 7 crystal forms therefrom, i.e., crystal forms A, B, C, E, F, J and K. Among those, crystal forms B, F and J are instable at common temperature while crystal form K is a crystal form of troxacitabine acetic acid solvate or acetate, crystal form C is a crystal form of troxacitabine monohydrate, and crystal forms A and E are the crystal forms of troxacitabine itself (anhydrous substance).
Transfer 201.3 mg of the final product obtained in the embodiment 1 to a 5-ml flasket, add 0.8 mL of water to dissolve and volatilize in a fume hood with the top open for 3 days. Transfer into a vacuum drying oven (<−100 KPa) and volatilize with the top open for 1 day. The resulted crystal form is called crystal form C and its superficial characteristics are obtained using x-ray powder diffraction (XRPD), thermogravimetric analysis (TGA) and differential scanning calorimetry (DSC).
Transfer 199.8 mg of the final product obtained in the embodiment 1 to a 5-ml flasket, add 4.0 mL of methanol:acetone=1:9 (v/v), and mix the suspension for 3 days. Centrifugate for 3 min at a rate of 10000 rpm, precipitate and vacuum dry for 1 h. The resulted crystal form is called crystal form E and its superficial characteristics are obtained using x-ray powder diffraction (XRPD) and differential scanning calorimetry (DSC). […] (the first endothermic peak at a starting temperature of 68.3° C. is the dehydration peak of crystal form C), the second endothermic peak disappears from DSC spectrum when heated to 160° C., that is, the second endothermic peak at a starting temperature of 146.0° C. is the crystal form conversion peak of crystal form A from crystal form E.)

[3] = Stability study of crystal form C (XRPD, TGA, DSC, HPLC)
Procedure: Crystal form C is evaluated for its physical-chemical stability when placed at 80° C. for 24 h (with the top closed) as well as at 40° C./75% RH and 25° C./60% RH for 1 week (with the top open). The chemical and physical stability of the samples are tested by XRPD, TGA, DSC and HPLC.

[4] = 1 week, 25° C./60% RH, top open
[5] = 1 week, 40° C./75% RH, top open

humidity at which the crystal form begins to absorb water ([1]; DVS)	water absorbed at 90% RH ([1]; DVS)	crystal form after water absorption / DVS (XRPD) [1]	crystal form change on storage ([2]; 1-month storage)	hygroscopicity ([1]; DVS, 25° C./80% RH)	relative stability among crystal forms ([1]; room temperature and room humidity)	TGA weight loss (heated to 100° C.) ([3]; 0 h, NA)	HPLC purity ([3]; 0 h, NA)	TGA weight loss (heated to 100° C.) [3, 4]	HPLC purity [3, 4]	TGA weight loss (heated to 100° C.) [3, 5]	HPLC purity [3, 5]	physical stability ([3]; 40° C./75% RH and 25° C./60% RH, 1 week)	chemical stability ([3]; 80° C. 24 h, 40° C./75% RH and 25° C./60% RH 1 week, chemical impurity analysis)	TGA weight loss (heated to 100° C.) ([3]; 24 h, 80° C., top closed)	HPLC purity ([3]; 24 h, 80° C., top closed)	Structure (SMILES)	crystal form change on heating ([2]; heated to 100° C., XRPD)	crystal form change on heating ([2]; heated to 160° C., XRPD)	crystal form change on storage ([2]; stored for 3 months in air, XRPD)
70 % RH	8.4%	begins to convert into crystal form C	partially convert into crystal form C	–	–	–	–	–	–	–	–	–	–	–	–	Nc1ccn(C2CO[C@H](CO)O2)c(=O)n1 (some centres unmarked) [crystal form A]	–	–	–
–	–	remain the same in crystal form	–	0.14%	most stable crystal form	8.0	100.0 area %	8.2	100.0 area %	7.9	100.0 area %	physically stable	chemically stable	0.4	100.0 area %	Nc1ccn(C2CO[C@H](CO)O2)c(=O)n1 (some centres unmarked) [crystal form C]	conversion of crystal form C into crystal form A	–	–
80 % RH	8.5%	begins to convert into crystal form C	–	–	–	–	–	–	–	–	–	–	–	–	–	Nc1ccn(C2CO[C@H](CO)O2)c(=O)n1 (some centres unmarked) [crystal form E]	–	conversion of crystal form E into crystal form A	has a tendency to convert into crystal form C
